The values that follow come from patent EP0808325B1, “[…] […] SERIES FOR […] GABA RECEPTOR” (priority 1994, dated 1996).

The subject of test [1] is rats. Nature of the test: Vogel test. Conditions: i.c.v. The test is classed as in vivo. The source says:
The Vogel test is based on the development of a conflict between a highly motivated behavior and an aversion. For this test, the strong motivation is thirst. The animal is water deprived for 12-16 hrs to produce the motivation to drink. During the training period the animals are exposed to the testing environment so they become accustomed to the drinking spout and minimize the fear of a novel environment. Following training, the animals are allowed access to water for 2 hrs. During this time, the animals will drink and eat their normal amount of water and food, compensating for the deprivation time. However, this schedule still produces a strong motivation to drink during the testing period.
Having been deprived of water for twelve to sixteen hours, an animal is placed in a test cage where it is allowed to drink freely for five minutes. This period is used to habituate the animal to the environment and the drinking spout Following the training period, animals have access to water and food in their home cage for 2 hrs. Food is available at all times. Twenty-four hours later, drug is administered to the animal intracerebroventricularly.
After an indicated delay started from the time of injection the animal is again placed in the test cage for ten minutes. A computer counts each time the animal licks, and after every twentieth lick administers a mild electric stimulus across the tongue and/or feet. The electrical stimulus consists of a 0.6 mA current with a duration of 100 msec. This procedure produces a state of conflict for the animal that is reduced by the administration of clinically used anxiolytic agents (i.e., Valium). For dose-response curves, separate groups of animals are injected with increasing doses of test drug and are tested at a predetermined time.

The target of test [2] is GR complex. Nature of the test: modulation of [35S]TBPS binding in rat cerebral cortex P2 homogenate. Also noted: species or system Sprague-Dawley rats; IMAX: unit not given here. Conditions: for IC50: concentration of compounds to inhibit 50% of control [35S]TBPS binding, 2 nM [35S]TBPS, 25°C, 90 minutes, no unit printed; for IMAX: maximum inhibition of [35S]TBPS binding, I* = Inactive. The gist of the method:
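Rat (male Sprague-Dawley) cortical P2 homogenate, 0.5 mg protein, in 50 mM Na/K phosphate pH 7.4, 200 mM NaCl, incubated 90 min at 25° C with 2 nM [35S]TBPS plus GABA and (+)bicuculline, compounds added in DMSO. Filter-bound radioactivity counted; nonspecific binding defined with […].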

In test [3] the test system is metrazol induced convulsions. Kind of test: animal or person. The test is classed as in vivo, mice. Particulars: IP, 10 mg/kg.
The test system of test [4] is mice. Kind of test: loss-of-righting reflex (anesthetic activity). The format is in vivo. Also noted: unit not given here. Particulars: iv. The method, then: The compounds of and used in the invention can also be used for anesthetic indications at high doses. However, the preferred route of administration to induce anesthesia is intravenous (i.v.) administration. In animals, a drug's anesthetic properties is measured by the drug's ability to produce a loss-of-righting reflex. The loss-of-righting reflex is defined as the inability of an animal to right itself within 30 seconds when placed on its back. Mice were administered drug i.v. in the lateral tail vein. Following administration, mice were placed on their backs and observed for loss-of-righting reflex.

Test [5] has as its system mice. Nature of the test: elevated plus-maze. Particulars: IP, 50% hpbcd. The test is classed as in vivo, N.I.H. Swiss-Webster mice. The gist of the method:
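Male Swiss-Webster mice (15-20 g), dosed once with drug or vehicle, were placed on an elevated plus-maze 10 min post-injection for 5 min. Open-arm entries and open-arm time recorded, each as a percentage of total arm entries or time; center time excluded.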

The test system of test [6] is rats. Nature of the test: Geller-Seifter conflict test. The format is in vivo, Sprague-Dawley rats. Conditions: sc, 50% hpbcd, 2 mg/kg. The source says:
This animal model of human anxiety utilizes a conditioned state of conflict in rats to ascertain the anxiolytic properties of drugs. Rats are conditioned to bar press for positive reinforcement under two schedules of behavior (Geller and Seifter, Psychopharmacologia 1:482-492 (1960)). The first includes bar pressing under a […] schedule without punishment. The second component is a fixed ratio schedule with each bar press resulting in a positive reinforcement and a punishment. The punished component produces a state of conflict within the animal. […] An anxiolytic response would increase the punished responding without affecting the unpunished responding.
Male albino Sprague-Dawley rats (Charles River Labs, Wilmington, MA) weighing 250-300 g were used for conflict experiments and were kept on a restricted diet of Purina Lab Chow food pellets with water available at all times to maintain body weight at 85% of their free-feeding young adult levels. Rats were housed individually under a 12-hour light-dark cycle with lights on from 0700-1900.
The anti-anxiety (punishment-lessening) and response depressant effects of […] and […] were measured in rats by the conflict test of Geller and Seifter (1960). In this 63-min test, hungry rats perform a lever-press response to obtain a sweetened milk reward. The reinforcement schedule consists of punishment and nonpunishment components, alternating approximately every 15 min. Rats were trained in test chambers (Coulbourn instruments) with a lever mounted in one wall, a small dipper that delivered the 0.1-mL milk reward (1 part Eagle condensed : milk 2 parts water), and a metal grid floor through which the foot-shock punishment was administered. A DEC PDP 11/73 minicomputer running SKED (State Systems) was used for programming and recording.
Rates initially learned to respond on a continuous reinforcement schedule and progressed rapidly to 30-sec, 1-min, and 2-min variable interval (VI) schedules. On the continuous reinforcement schedule, rats received milk reward following every lever press; on the VI schedules, milk rewards were available at infrequent and variable intervals, eventually at an average of once every 2 min. Four 3-min "conflict" periods were then introduced on the unpunished VI baseline; the first started after 3 min of VI performance and the others were alternated between 12-min periods of VI responding. During conflict periods, which were signalled by the presentation of a light and a tone, the continuous reinforcement schedule was again in force and each lever press delivered both a milk reward and a brief ([…]) foot-shock punishment. Shock intensity was 0.2 mA initially, and.was increased daily in increments of 0.02 mA in order to gradually suppress lever pressing to 5 responses or less per conflict period. This training took 4-6 weeks, after which stable low rates of response were observed during conflict periods and stable high rates in the nonpunishment periods. Drug-induced increases in the rate of punished responses were taken as an index of antianxiety activity, while decreases in the rate of unpunished responses were taken as an index of response depression or sedation.

[7] abbreviates: 50% hpbcd, 10 minutes prior to metrazol (85 mg/kg).

As to `CC(O)C1CCC2C3CCC4CC(O)C(F)CC4(C)C3CCC12C` (stereo not drawn) [2β-Fluoro-3α,20α-dihydroxy-5α-pregnane], the “Vogel (% of control)” value in test [1] (g-CD, 20 ug) is 264.9 % of control.
A word on the IC50: it is the concentration that inhibits the measured activity by half. In test [2], `CC(C)(O)[C@H]1CC[C@H]2[C@@H]3CC[C@H]4C[C@H](O)CC[C@]4(C)[C@H]3CC[C@]12C` [3α,20-dihydroxy-20-methyl-5α-pregnane] gave a 50% inhibitory concentration (IC50) of 0.176 µM and an IMAX of 40. The “Vogel (% of control)” value in test [1] (g-CD, 20 ug) was 179.0 % of control.
Turning to `C[C@H](O)[C@H]1CC[C@H]2[C@@H]3CC[C@H]4C[C@H](O)CC[C@]4(C)[C@H]3CC[C@]12C` [3α,20a(S)-dihydroxy-5α-pregnane, 3α,20α(S)-Dihydroxy-5α-pregnane], in test [3] (micro soln.), the “% Protected” value was determined as 30%. In test [2], this compound had an IC50 of 0.099 µM and an IMAX of 46. In addition, the “Vogel (% of control)” value in test [1] (b-CD, 10 ug) was 193.0 % of control.
As for `CC(C)OC1CC2(C)C(CCC3C2CCC2(C)C(C(C)O)CCC32)CC1O` (stereo not drawn) [3α,20α-Dihydroxy-2β-isopropoxy-5α-pregnane], the “Vogel (% of control)” value in test [1] (g-CD, 10 ug) is 169.0 % of control.
Still for that read-out and setting: then `C[C@H](O)[C@H]1CC[C@H]2[C@@H]3CC[C@@H]4C[C@H](O)CC[C@]4(C)[C@H]3CC[C@]12C` [3α,20α-Dihydroxy-5β-pregnane], with 283.3 % of control.
For `CCC[C@H](O)[C@H]1CC[C@H]2[C@@H]3CC[C@H]4C[C@H](O)CC[C@]4(C)[C@H]3CC[C@]12C` [3α,20α-dihydroxy-21-ethyl-5α-pregnane], in test [2], the 50% inhibitory concentration (IC50) was 0.027 µM and the IMAX is 13. The “Vogel (% of control)” value in test [1] (g-CD, 20 ug) was 225.8 % of control.
Consider `CC[C@H](O)[C@H]1CC[C@H]2[C@@H]3CC[C@H]4C[C@H](O)CC[C@]4(C)[C@H]3CC[C@]12C` [3α,20α-dihydroxy-21-methyl-5α-pregnane, 3α,20α-Dihydroxy-21-methyl-5α-pregnane], for which, in test [2], the IC50 worked out at 0.035 µM and the IMAX is given as 28. Moreover, the “Vogel (% of control)” value in test [1] (g-CD, 10 ug) is given as 157.9 % of control.
With `C[C@@H](O)[C@H]1CC[C@H]2[C@@H]3CC[C@@H]4C[C@H](O)CC[C@]4(C)[C@H]3CC[C@]12C` [3α,20β-Dihydroxy-5β-pregnane], the “Vogel (% of control)” value in test [1] (g-CD, 20 ug) was 267.3 % of control.
As to `C#C[C@@]1(O)CC[C@@]2(C)[C@H](CC[C@@H]3[C@@H]2CC[C@]2(C)[C@@H](C(=O)CO)CC[C@@H]32)C1` [3α,21-Dihydroxy-3β-ethynyl-5β-pregnan-20-one], the “Loss-of-Righting Reflex” value in test [4] (20% cremophor, 10 mg/kg) amounted to 100. Besides, the “% Protected” value in test [3] (setting [7]) was 18.8%. The “% Control” value in test [5] (10 mg/kg) is recorded as 162%. In test [2], the half-inhibitory concentration (IC50) was determined as 0.216 µM and the IMAX is 104.
On to `CC(=O)[C@H]1CC[C@H]2[C@@H]3CC[C@H]4C[C@H](O)CC[C@]4(C)C3=CC[C@]12C` [3α-Hydroxy-5α-pregn-9-en-20-one], for which the “Loss-of-Righting Reflex” value in test [4] (micronizing solution, 10 mg/kg) was determined as 100.
Consider `COC=C1CCC2C3CCC4CC(O)CCC4C3CCC12C` (stereo not drawn) [3α-Hydroxy-17(20)(Z)-methoxytnethylene-19-nor-5α-androstane], for which the “Loss-of-Righting Reflex” value in test [4] (micronizing solution, 5 mg/kg) turned out to be 75.
As to `CC(=O)[C@H]1CC[C@H]2[C@@H]3CC[C@@H]4C[C@](C)(O)CC[C@]4(C)[C@H]3CC[C@]12C` [3α-hydroxy-3β-methyl-5β-pregnan-20-one], in test [4] (micronizing solution, 2.5 mg/kg), the “Loss-of-Righting Reflex” value was 100. Besides, the “% Protected” value in test [3] (micro soln.) turned out to be 70%. In addition, in test [2], the IC50 came to 0.037 µM and the IMAX is given as 98.
Regarding `CC(=O)[C@H]1CC[C@H]2[C@@H]3CC[C@@H]4C[C@@](O)(C#CCl)CC[C@]4(C)[C@H]3CC[C@]12C` [3β-(Chloroethynyl)-3α-hydroxy-5β-prognan-20-one], in test [4] (micronizing solution, 20 mg/kg), the “Loss-of-Righting Reflex” value was 100.
For `C#C[C@@]1(O)CC[C@@]2(C)[C@H](CC[C@@H]3[C@@H]2CC[C@]2(C)[C@@H](C(C)=O)CC[C@@H]32)C1` [3β-ethynyl-3α-hydroxy-5β-pregnan-20-one, 3β-Ethynyl-3α-hydroxy-5β-pregnan-20-one], the “Loss-of-Righting Reflex” value in test [4] (10% hpbcd, 30 mg/kg) amounted to 100. Moreover, the “% Protected” value in test [3] (setting [7]) is on record as 100%. The “Geller/Seifter (% of control)” value in test [6] is recorded as 751.1 % of control. Moreover, in test [5] (1 mg/kg), the “% Control” value was 186.6%. Moreover, in test [2], the IC50 was determined as 0.039 µM and the IMAX was determined as 101.
